Results reported in PMC9370056, “Pyrimidines-Based Heterocyclic Compounds: Synthesis, Cytoxicity Evaluation and Molecular Docking” (Molecules, 2022).
Counter-ions that a name gives are not always drawn.

What was measured:
[1] = tested on: MRC cell line; test: Microscopic observation of treated normal cells (crystal violet); type: cell-based, human; conditions: 50 µg/mL, 100×, relative to untreated cells
Experimental: (§1) This experiment was performed as previously described in the procedure for antitumor activity. After the end of the treatment at 50 µg/mL concentration, the plates were inverted to remove the medium, the wells were washed three times with 300 µL of phosphate buffered saline (pH 7.2), and then the cells were fixed to the plate with 10% formalin for 15 min at room temperature. The fixed cells were then stained with 100 µL of 0.25% crystal violet for 20 min. The stain was removed, and the plates were rinsed using deionized water to remove the excess stain and then allowed to dry. The cellular morphology was observed using an inverted microscope (CKX41; Olympus, Tokyo, Japan) equipped with a digital microscopy camera to capture the images representing the morphological changes compared to control cells. The cytopathic effects (morphological alterations) were microscopically detected at 100×.

[2] = MTT cytotoxicity assay, normal lung fibroblasts MRC-5; conditions: human, MRC-5 normal lung fibroblast cells
Experimental: Preliminary in vitro anticancer activity of two compounds (2, and 3a) against the growth of five human cancer cell lines (prostate carcinoma PC3, liver carcinoma HepG-2, human colon cancer HCT-116, human breast cancer MCF-7, human lung cancer A-549) and normal human lung fibroblasts (MRC-5) were performed using the MTT assay as described in the experimental section. The inhibitory potency of the screened compounds against the tested cell lines was compared to vinblastine sulfate as a reference anticancer drug.
MRC-5 (normal human Lung fibroblast cells) were obtained from VACSERA Tissue Culture Unit. […] The normal human lung fibroblasts (MRC-5) cells were propagated in Dulbecco’s Modified Eagle’s Medium (DMEM) supplemented with 10% heat-inactivated fetal bovine serum, 1% L-glutamine, HEPES buffer, and 50µg/mL gentamycin. […] All cells were maintained at 37 °C in a humidified atmosphere with 5% CO2 and were subcultured two times a week. Chemicals used: Dimethyl sulfoxide (DMSO), MTT (3-(4,5-dimethylthiazol-2-yl)-2,5-diphenyl tetrazolium bromide), crystal violet, and trypan blue dye were purchased from Sigma (St. Louis, MO, USA). Fetal bovine serum, DMEM, RPMI-1640, HEPES buffer solution, L-glutamine, gentamycin, and 0.25% trypsin-EDTA were purchased from Lonza. Crystal violet stain (1%): composed of 0.5% (w/v) crystal violet and 50% methanol then made up to volume with deionized water and filtered through a Whatman No.1 filter paper.
For cytotoxicity assay, the normal human lung fibroblasts (MRC-5) cells were seeded in a 96-well plate at a cell concentration of 1 × 10^4 cells per well in 100 µL of growth medium. Fresh medium containing different concentrations of the test sample was added after 24 h of seeding. Serial two-fold dilutions of the tested chemical compound were added to confluent cell monolayers dispensed into 96-well, flat-bottomed microtiter plates (Falcon; Franklin, NJ, USA) using a multichannel pipette. The microtiter plates were incubated at 37 °C in a humidified incubator with 5% CO2 for a period of 24 h. Three wells were used for each concentration of the test sample. Control cells were incubated without the test sample and with or without DMSO. […] After incubation of the cells, viable cell yield was determined by a colorimetric method. After incubating for 24 h, the numbers of viable cells were determined by the MTT test. The cytotoxic concentration (CC50), the concentration required to cause toxic effects in 50% of intact cells, was estimated from graphic plots of the dose–response curve for each conc. using GraphPad Prism software (San Diego, CA. USA).

[3] = tested on: human prostate carcinoma cell line PC3; test: MTT viability assay, PC3 prostate carcinoma; type: cell-based; conditions: for IC50: 24 h
Experimental: (§2) For antitumor assays, the human prostate carcinoma cell line PC3 was suspended in medium at a concentration of 5 × 10^4 cell/well in Corning® 96-well tissue culture plates, then incubated for 24 h. The tested compounds were then added into 96-well plates (three replicates) to achieve eight concentrations for each compound. Six vehicle controls with media or 0.5 % DMSO were run for each 96-well plate as a control. […] Briefly, the media was removed from the 96-well plate and replaced with 100 µL of fresh culture RPMI-1640 medium without phenol red then 10 µL of the 12 mM MTT stock solution (5 mg of MTT in 1 mL of PBS) to each well including the untreated controls. The 96-well plates were then incubated at 37 °C and 5% CO2 for 4 h. An 85 µL aliquot of the media was removed from the wells, and 50 µL of DMSO was added to each well and mixed thoroughly with a pipette and incubated at 37 °C for 10 min. Then, the optical density was measured at 590 nm with the microplate reader (Sunrise, Tecan Inc, Morrisville, NC, USA) to determine the number of viable cells and the percentage of viability was calculated as [(ODt/ODc)] × 100% where ODt is the mean optical density of wells treated with the tested sample and ODc is the mean optical density of untreated cells. The relation between surviving cells and drug concentration was plotted to obtain the survival curve of each tumor cell line after treatment with the specified compound.

[4] = tested on: PC3 cell line; test: Microscopic observation of treated tumor cells (crystal violet); type: cell-based, human; conditions: 50 µg/mL, 100×, relative to untreated cells
Experimental: as §1

[5] = tested on: PC3 and MRC-5 cell lines; test: Selectivity index, CC50 on normal cells / IC50 on cancer cells; type: cell-based, human; conditions: CC50 on MRC-5 / IC50 on PC3
From the text: The selectivity index (SI) is a measure of the drug candidate’s selectivity towards cancer cells rather than normal cells. It can be calculated as the ratio between the tested compound CC50 on normal cells and its IC50 on cancer cells.

[6] = tested on: normal human lung fibroblasts (MRC-5)
[7] = tested on: human breast cancer MCF-7; test: MTT assay, MCF-7; type: cell-based; conditions: MCF7, Table 1, MTT
Experimental: [The procedure below names another cell line; the source lists this cell line under the same test.] as §2

[8] = tested on: human lung cancer A-549; test: MTT assay, A-549; type: cell-based; conditions: A549, Table 1, MTT
Experimental: [The procedure below names another cell line; the source lists this cell line under the same test.] as §2

[9] = tested on: normal human lung fibroblasts (MRC-5); test: MTT cytotoxicity assay, normal lung fibroblasts MRC-5; conditions: Homo sapiens, MRC5, 24 h, read-out: IC50 Values MRC-5
[10] = tested on: human colon cancer HCT-116; test: MTT assay, HCT-116; type: cell-based; conditions: Table 1, MTT
Experimental: [The procedure below names another cell line; the source lists this cell line under the same test.] as §2

[11] = tested on: liver carcinoma HepG-2; test: MTT assay, HepG-2; type: cell-based; conditions: Homo sapiens, HepG2; Table 1, MTT
Experimental: [The procedure below names another cell line; the source lists this cell line under the same test.] as §2

[12] = Homo sapiens, Table 2, MTT, three replicates

Row | Compound | IC50 [3, 12] [µM] | Morphological changes of MRC cells [1] | CC50 at 24 h [2] [µM] | Morphological changes of PC3 cells [4] | SI (selectivity index) [5] | other results
1 | COc1cccc(/C=N/Nc2nc(-c3ccccc3)c(C#N)c(=O)[nH]2)c1 [Compound 3f, 2-(2-(3-Methoxybenzylidene)hydrazinyl)-6-oxo-4-phenyl-1,6-dihydropyrimidine-5-carbo-nitrile] | 88 ± 2 | no significant apoptotic effect | 339 ± 11 | the cancer cells shrank and lost their normal shape |  | 
2 | N#Cc1c(-c2ccccc2)nc(N/N=C/c2ccc(O)cc2)[nH]c1=O [Compound 3g, 2-(2-(4-Hydroxybenzylidene)hydrazinyl)-6-oxo-4-phenyl-1,6-dihydropyrimidine-5-carboni-trile] | 64 ± 3 | no significant apoptotic effect | 311 ± 14 | the cancer cells shrank and lost their normal shape |  | 
3 | Cc1ccccc1/C=N/Nc1nc(-c2ccccc2)c(C#N)c(=O)[nH]1 [Compound 3e, 2-(2-(2-Methylbenzylidene)hydrazinyl)-6-oxo-4-phenyl-1,6-dihydropyrimidine-5-carboni-trile] | 182 ± 5 |  | 428 ± 16 |  | 2.34 | 
4 | N#Cc1c(-c2ccccc2)nc(N/N=C/c2ccc(Br)cc2)[nH]c1=O [Compound 3b, 2-(2-(4-Bromobenzylidene)hydrazinyl)-6-oxo-4-phenyl-1,6-dihydropyrimidine-5-carbonitri-le] | 21 ± 1 | no significant apoptotic effect | 147 ± 4 | the cancer cells shrank and lost their normal shape |  | 
5 | N#Cc1c(-c2ccccc2)nc(NN=CC=Cc2ccccc2)[nH]c1=O [Compound 3h, 6-Oxo-4-phenyl-2-(2-(3-phenylallylidene)hydrazinyl)-1,6-dihydropyrimidine-5-carbonitrile] | 44 ± 2 | no significant apoptotic effect | 180 ± 9 | the cancer cells shrank and lost their normal shape |  | 
6 | N#Cc1c(-c2ccccc2)nc2n(c1=O)C(c1ccccc1)C(c1ccccc1)=NN2 (stereo not drawn) [Compound 5, 6-Oxo-3,4,8-triphenyl-4,6-dihydro-1H-pyrimido[2,1-c]-1,2,4-triazine-7-carbonitrile] | 72 ± 2 | no significant apoptotic effect | 263 ± 7 | the cancer cells shrank and lost their normal shape |  | 
7 | 3-Hydroxy-6-oxo-8-phenyl-2,6-dihydro-1H-pyrimido[2,1-c]-1,2,4-triazine-7-carbonitrile [Compound 6] |  |  |  |  | 2.17 | CC50 [6]: 453 ± 13 µM; IC50 ([3]; Table 2, MTT, three replicates): 208 ± 7 µM
8 | N#Cc1c(-c2ccccc2)nc(NN=Cc2ccccc2)[nH]c1=O [Compound 3a, 2-(2-Benzylidenehydrazinyl)-6-oxo-4-phenyl-1,6-dihydropyrimidine-5-carbonitrile] |  |  | 92 ± 3 |  | 0.99 | IC50 [7]: 81 µM; IC50 [8]: 98 µM; IC50 [9]: 92 µM; IC50 ([3]; Homo sapiens, Table 1, MTT): 93 µM; IC50 [10]: 149 µM; IC50 [11]: 59 µM
9 | N#Cc1c(-c2ccccc2)nc(NN=Cc2ccc([N+](=O)[O-])cc2)[nH]c1=O [Compound 3i, 2-(2-(4-Nitrobenzylidene)hydrazinyl)-6-oxo-4-phenyl-1,6-dihydropyrimidine-5-carbonitrile] | 37 ± 2 |  | 82 ± 3 |  | 2.18 | 
10 | N#Cc1c(-c2ccccc2)nc(N/N=C/c2ccccc2Cl)[nH]c1=O [Compound 3d, 2-(2-(2-Chlorobenzylidene)hydrazinyl)-6-oxo-4-phenyl-1,6-dihydropyrimidine-5-carbonitri-le] | 17 ± 1 |  | 44 ± 1 |  | 2.52 | fold more potent than vinblastine sulfate ([3]; PC3, from IC50 values): 2 to 3 fold
11 | N#Cc1c(-c2ccccc2)nc(NN)[nH]c1=O [Compound 2, 2-Hydrazino-6-oxo-4-phenyl-1,6-dihydropyrimidine-5-carbonitrile] |  |  | 532 ± 14 |  | 2.05 | IC50 [7]: 236 µM; IC50 [8]: 264 µM; IC50 [9]: 532 µM; IC50 ([3]; Homo sapiens, Table 1, MTT): 258 µM; IC50 [10]: 180 µM; IC50 [11]: 99 µM
12 | CC[C@]1(O)C[C@@H]2CN(CCc3c([nH]c4ccccc34)[C@@](C(=O)OC)(c3cc4c(cc3OC)N(C)[C@H]3[C@@](O)(C(=O)OC)[C@H](OC(C)=O)[C@]5(CC)C=CCN6CC[C@]43[C@@H]65)C2)C1 [Vinblastine sulfate, reference compound] |  |  | 65 ± 2 |  | 1.40 | IC50 [7]: 6 µM; IC50 [8]: 27 µM; IC50 [9]: 65 µM; IC50 ([3]; Homo sapiens, Table 1, MTT): 46 µM; IC50 [10]: 4 µM; IC50 [11]: 3 µM

More lines, main results first:

Row | IC50 [3, 12] [µM] | Compound | Morphological changes of MRC cells [1] | CC50 at 24 h [2] [µM] | Morphological changes of PC3 cells [4] | SI (selectivity index) [5] | other results
13 | 603 ± 19 | N#Cc1c(-c2ccccc2)nc(N/N=C2\C(=O)Nc3ccccc32)[nH]c1=O [Compound 4, 6-Oxo-2-(2-(isatin-3-ylidene)hydrazinyl)-4-phenyl-1,6-dihydropyrimidine-5-carbonitrile] |  | 348 ± 11 |  | 0.57 | 
14 | 349 ± 9 | N#Cc1c(-c2ccccc2)nc(N/N=C/c2ccc(Cl)cc2)[nH]c1=O [Compound 3c, 2-(2-(4-Chlorobenzylidene)hydrazinyl)-6-oxo-4-phenyl-1,6-dihydropyrimidine-5-carbonitri-le] |  | 675 ± 19 |  | 1.93 | 
